Reference: ChEMBL document CHEMBL5223141, “New cycloalkyl[b]thiophenylnicotinamide-based α-glucosidase inhibitors as promising anti-diabetic agents: Synthesis, in silico study, in vitro and in vivo evaluations” (Bioorg Med Chem Lett, 2023)
Activity calls are given as the source filed them. The calls are words filed in the database; no cut-off is given here.

Legend:
[1] = biological target: Maltase-glucoamylase (Homo sapiens) (UniProt O43451); assay: Inhibition of alpha-glucosidase (unknown origin) at 100 uM relative to control
Homo sapiens = organism: Homo sapiens; assay: Selectivity ratio of IC50 for alpha-amylase (unknown origin) to IC50 for alpha-glucosidase (unknown origin)
Alpha amylase = biological target: T1, Alpha amylase (Homo sapiens, UniProt P0DUB6); assay: Inhibition of alpha-amylase (unknown origin)
T1 sequence (P0DUB6 whole entry): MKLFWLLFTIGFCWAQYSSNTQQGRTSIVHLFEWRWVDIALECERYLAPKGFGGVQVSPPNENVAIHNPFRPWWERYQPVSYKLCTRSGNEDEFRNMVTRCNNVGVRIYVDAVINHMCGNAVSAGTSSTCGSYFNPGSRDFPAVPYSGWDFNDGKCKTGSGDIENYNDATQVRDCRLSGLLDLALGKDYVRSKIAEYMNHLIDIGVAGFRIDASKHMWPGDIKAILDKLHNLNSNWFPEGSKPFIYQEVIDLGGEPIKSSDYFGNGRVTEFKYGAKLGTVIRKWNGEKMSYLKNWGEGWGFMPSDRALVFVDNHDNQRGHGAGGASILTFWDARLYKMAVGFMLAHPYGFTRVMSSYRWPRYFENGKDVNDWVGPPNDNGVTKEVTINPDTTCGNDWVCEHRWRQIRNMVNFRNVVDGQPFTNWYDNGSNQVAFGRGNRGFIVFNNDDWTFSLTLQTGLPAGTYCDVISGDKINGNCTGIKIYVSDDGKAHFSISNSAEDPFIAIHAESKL

HepG2 = assay: Cytotoxicity against human HepG2 cells at 100 uM by MTT assay; format: toxicity, cell-based; settings: hepg2, 100 µM
L02 = assay: Cytotoxicity against human L02 cells at 100 uM by MTT assay; format: toxicity, cell-based; settings: l02, 100 µM
[2] = biological target: Maltase-glucoamylase (Homo sapiens) (UniProt O43451); assay: Mixed type inhibition of alpha-glucosidase (unknown origin) assessed as decrease in Vmax by measuring increase in slope using pNPG as substrate at upto 25 uM by Lineweaver-Burk plot analysis
[3] = biological target: Maltase-glucoamylase (Homo sapiens) (UniProt O43451); assay: Mixed type inhibition of alpha-glucosidase (unknown origin) assessed as increase in Km by measuring increase in intercept using pNPG as substrate at upto 25 uM by Lineweaver-Burk plot analysis
Rattus norvegicus [4] = assay: Anti-hyperglycemic activity in sucrose loaded Sprague-Dawley rat assessed as blood glucose level at 5 mg/kg, po measured at 30 mins by oral sucrose tolerance test (reference value: 10.80+/-0.92 mmol/L); format: functional; settings: 0.5 h
[5] = biological target: Maltase-glucoamylase (Homo sapiens) (UniProt O43451); assay: Inhibition of alpha-glucosidase (unknown origin) assessed as increase in intrinsic fluorescence emission; settings: dose 0-100 µM
Rattus norvegicus [6] = assay: Anti-hyperglycemic activity in sucrose loaded Sprague-Dawley rat assessed as decrease in blood glucose level at 5 mg/kg, po measured after 45 mins by oral sucrose tolerance test; format: functional; settings: 0.75 h

Sequence of Maltase-glucoamylase (Homo sapiens) (O43451 whole entry, looked up): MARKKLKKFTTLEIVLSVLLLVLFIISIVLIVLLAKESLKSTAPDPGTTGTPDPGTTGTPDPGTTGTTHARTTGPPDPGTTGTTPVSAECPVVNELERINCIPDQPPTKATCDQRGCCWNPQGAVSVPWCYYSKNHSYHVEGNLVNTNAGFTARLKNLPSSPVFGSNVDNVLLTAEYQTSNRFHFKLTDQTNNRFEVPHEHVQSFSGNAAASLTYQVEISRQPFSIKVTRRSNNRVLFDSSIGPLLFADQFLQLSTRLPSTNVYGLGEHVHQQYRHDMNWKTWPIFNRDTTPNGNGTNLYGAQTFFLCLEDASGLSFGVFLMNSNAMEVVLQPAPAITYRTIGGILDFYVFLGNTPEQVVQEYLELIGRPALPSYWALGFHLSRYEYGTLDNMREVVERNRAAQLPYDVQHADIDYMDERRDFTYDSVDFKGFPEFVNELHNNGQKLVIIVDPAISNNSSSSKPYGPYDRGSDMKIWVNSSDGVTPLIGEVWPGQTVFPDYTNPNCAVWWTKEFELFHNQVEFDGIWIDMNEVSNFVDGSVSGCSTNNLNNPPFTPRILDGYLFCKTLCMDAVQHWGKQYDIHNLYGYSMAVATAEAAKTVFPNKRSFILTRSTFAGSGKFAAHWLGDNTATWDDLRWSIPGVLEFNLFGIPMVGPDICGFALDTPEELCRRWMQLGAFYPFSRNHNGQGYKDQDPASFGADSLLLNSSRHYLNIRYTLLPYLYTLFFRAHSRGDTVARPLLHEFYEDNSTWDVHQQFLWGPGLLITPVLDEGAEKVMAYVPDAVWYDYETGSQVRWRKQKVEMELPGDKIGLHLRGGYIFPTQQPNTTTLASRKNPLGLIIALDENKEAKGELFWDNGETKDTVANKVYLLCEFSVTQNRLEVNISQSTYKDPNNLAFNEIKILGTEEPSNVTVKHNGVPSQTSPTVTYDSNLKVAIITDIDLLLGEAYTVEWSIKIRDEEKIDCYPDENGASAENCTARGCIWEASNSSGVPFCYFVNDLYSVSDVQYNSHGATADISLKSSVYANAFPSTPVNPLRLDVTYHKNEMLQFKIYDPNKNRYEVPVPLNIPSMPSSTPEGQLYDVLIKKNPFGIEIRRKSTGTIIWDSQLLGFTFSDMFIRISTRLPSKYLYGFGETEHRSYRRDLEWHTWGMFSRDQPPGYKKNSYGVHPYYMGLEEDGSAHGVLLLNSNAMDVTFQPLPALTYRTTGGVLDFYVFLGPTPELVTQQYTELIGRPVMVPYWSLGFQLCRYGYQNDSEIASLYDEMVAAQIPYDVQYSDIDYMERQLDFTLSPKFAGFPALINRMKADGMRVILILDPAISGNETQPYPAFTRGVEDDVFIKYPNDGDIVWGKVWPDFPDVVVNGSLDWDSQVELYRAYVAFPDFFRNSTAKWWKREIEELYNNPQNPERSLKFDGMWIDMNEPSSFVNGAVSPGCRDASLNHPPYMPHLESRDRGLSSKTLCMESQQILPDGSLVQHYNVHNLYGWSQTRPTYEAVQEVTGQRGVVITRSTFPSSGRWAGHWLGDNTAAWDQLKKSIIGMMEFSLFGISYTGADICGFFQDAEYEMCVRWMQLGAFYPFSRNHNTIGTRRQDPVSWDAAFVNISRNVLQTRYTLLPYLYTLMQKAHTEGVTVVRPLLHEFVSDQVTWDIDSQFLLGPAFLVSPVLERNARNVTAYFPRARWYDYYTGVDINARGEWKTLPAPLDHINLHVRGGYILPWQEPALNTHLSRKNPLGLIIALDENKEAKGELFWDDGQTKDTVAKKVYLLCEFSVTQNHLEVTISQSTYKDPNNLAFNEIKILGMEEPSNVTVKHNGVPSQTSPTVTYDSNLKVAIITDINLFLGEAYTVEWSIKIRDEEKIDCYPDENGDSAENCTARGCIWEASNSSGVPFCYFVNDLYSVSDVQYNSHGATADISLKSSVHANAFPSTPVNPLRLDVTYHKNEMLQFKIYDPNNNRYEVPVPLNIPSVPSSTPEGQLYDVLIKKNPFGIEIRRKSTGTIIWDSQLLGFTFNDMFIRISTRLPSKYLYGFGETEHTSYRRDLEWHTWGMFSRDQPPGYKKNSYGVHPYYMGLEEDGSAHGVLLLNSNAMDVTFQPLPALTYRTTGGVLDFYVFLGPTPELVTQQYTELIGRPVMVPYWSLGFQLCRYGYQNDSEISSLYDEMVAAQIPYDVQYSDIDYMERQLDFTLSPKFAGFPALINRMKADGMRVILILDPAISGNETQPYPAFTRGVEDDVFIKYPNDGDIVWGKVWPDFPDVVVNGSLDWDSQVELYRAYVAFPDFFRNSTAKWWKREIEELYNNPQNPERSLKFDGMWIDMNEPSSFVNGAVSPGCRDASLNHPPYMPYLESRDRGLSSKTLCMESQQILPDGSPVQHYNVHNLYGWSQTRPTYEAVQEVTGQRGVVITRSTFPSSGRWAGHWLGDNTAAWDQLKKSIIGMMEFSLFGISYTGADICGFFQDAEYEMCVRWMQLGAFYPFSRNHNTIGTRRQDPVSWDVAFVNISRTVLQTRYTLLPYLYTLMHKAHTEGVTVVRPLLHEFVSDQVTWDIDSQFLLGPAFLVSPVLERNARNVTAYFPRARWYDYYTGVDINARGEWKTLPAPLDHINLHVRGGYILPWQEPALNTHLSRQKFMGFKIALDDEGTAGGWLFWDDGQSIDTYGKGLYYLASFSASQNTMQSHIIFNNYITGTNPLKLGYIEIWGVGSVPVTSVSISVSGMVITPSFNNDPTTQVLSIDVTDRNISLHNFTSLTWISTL

| SMILES | inhibition [1] [%] | Activity (HepG2) | Activity (L02) | further results |
| --- | --- | --- | --- | --- |
| COc1cc2c(cc1OC)CN(C(=O)c1c(NC(=O)c3cccnc3)sc3c1CCCCC3)CC2 | 29.1 |  |  |  |
| COC(=O)c1ccc(CNC(=O)c2c(NC(=O)c3cccnc3)sc3c2CCCC3)cc1 | 58.2 | Non-Toxic | Non-Toxic | Ratio IC50 (Homo sapiens): 0.8; IC50 (Alpha amylase): 66.9 µM |
| O=C(Nc1sc2c(c1C(=O)NCc1ccccn1)CCCC2)c1cccnc1 | 57.2 | Non-Toxic | Non-Toxic | Ratio IC50 (Homo sapiens): 1.5; IC50 (Alpha amylase): 94.8 µM |
| COc1cc2c(cc1OC)CN(C(=O)c1c(NC(=O)c3cccnc3)sc3c1CCC3)CC2 | 23.2 | Non-Toxic | Non-Toxic |  |
| COc1cc(CNC(=O)c2c(NC(=O)c3cccnc3)sc3c2CCC3)ccc1O | 50.6 | Non-Toxic | Non-Toxic |  |
| COc1ccc(CNC(=O)c2c(NC(=O)c3cccnc3)sc3c2CCC3)cc1 | 55.4 | Non-Toxic | Non-Toxic |  |
| O=C(Nc1sc2c(c1C(=O)NCc1ccccc1)CCC2)c1cccnc1 | 56.6 | Non-Toxic | Non-Toxic |  |
| COC(=O)c1ccc(CNC(=O)c2c(NC(=O)c3cccnc3)sc3c2CCCCC3)cc1 | 18.1 |  |  |  |
| O=C(Nc1sc2c(c1C(=O)NCc1ccccc1)CCCC2)c1cccnc1 | 64.4 | Non-Toxic | Non-Toxic | Ratio IC50 (Homo sapiens): 1.7; IC50 (Alpha amylase): 76.1 µM |
| O=C(Nc1sc2c(c1C(=O)NCc1ccncc1)CCC2)c1cccnc1 | 1.1 | Non-Toxic | Non-Toxic |  |
| COc1cc(CNC(=O)c2c(NC(=O)c3cccnc3)sc3c2CCCC3)ccc1O | 93.6 | Non-Toxic | Non-Toxic | Activity [2]: Active; Ratio IC50 (Homo sapiens): 7.4; Activity [3]: Active; IC50 (Alpha amylase): 72.9 µM; Activity (Rattus norvegicus [4]): 9.73 mmol/L; Activity [5]: Dose-Dependent Effect; Activity (Rattus norvegicus [6]): 9.9 mmol/L |
| O=C(Nc1sc2c(c1C(=O)NCc1ccccn1)CCCCC2)c1cccnc1 | 26.8 |  |  |  |
| C[C@H]1O[C@H](O[C@H]2[C@H](O)[C@@H](O)[C@@H](O[C@H]3[C@H](O)[C@@H](O)C(O)O[C@@H]3CO)O[C@@H]2CO)[C@H](O)[C@@H](O)[C@@H]1N[C@H]1C=C(CO)[C@@H](O)[C@H](O)[C@H]1O (stereo partly drawn) [ACARBOSE] |  | Non-Toxic | Non-Toxic | Activity (Rattus norvegicus [4]): 9.57 mmol/L; Activity (Rattus norvegicus [6]): 9.89 mmol/L |
| COc1ccc(CNC(=O)c2c(NC(=O)c3cccnc3)sc3c2CCCC3)cc1 | 78.1 | Non-Toxic | Non-Toxic | Ratio IC50 (Homo sapiens): 2.7; IC50 (Alpha amylase): 80.4 µM |
| COC(=O)c1ccc(CNC(=O)c2c(NC(=O)c3cccnc3)sc3c2CCC3)cc1 | 21.9 | Non-Toxic | Non-Toxic |  |
| O=C(Nc1sc2c(c1C(=O)NCc1ccncc1)CCCCC2)c1cccnc1 | 9.2 |  |  |  |

More lines, main results first:

| inhibition [1] [%] | SMILES | Activity (HepG2) | Activity (L02) | further results |
| --- | --- | --- | --- | --- |
| 59 | O=C(Nc1sc2c(c1C(=O)NCc1ccccc1)CCCCC2)c1cccnc1 |  |  |  |
| 26.5 | O=C(Nc1sc2c(c1C(=O)NCc1cccnc1)CCCCC2)c1cccnc1 |  |  |  |
| 81.7 | COc1cc(CNC(=O)c2c(NC(=O)c3cccnc3)sc3c2CCCCC3)ccc1O |  |  |  |
| 12.5 | O=C(Nc1sc2c(c1C(=O)NCc1cccnc1)CCC2)c1cccnc1 | Non-Toxic | Non-Toxic |  |
| 30.5 | O=C(Nc1sc2c(c1C(=O)NCc1ccccn1)CCC2)c1cccnc1 | Non-Toxic | Non-Toxic |  |
| 62.7 | O=C(Nc1sc2c(c1C(=O)NCc1cccnc1)CCCC2)c1cccnc1 | Non-Toxic | Non-Toxic | Ratio IC50 (Homo sapiens): 0.9; IC50 (Alpha amylase): 48.1 µM |
| 44.1 | O=C(Nc1sc2c(c1C(=O)NCc1ccncc1)CCCC2)c1cccnc1 |  |  |  |
| 42.2 | COc1cc2c(cc1OC)CN(C(=O)c1c(NC(=O)c3cccnc3)sc3c1CCCC3)CC2 |  |  |  |
| 44.1 | COc1ccc(CNC(=O)c2c(NC(=O)c3cccnc3)sc3c2CCCCC3)cc1 |  |  |  |
